From patent US10525110B2, “Methods for inducing partial apoptosis using caspase polypeptides” (Bellicum Pharmaceuticals, Inc., priority 2013, dated 2020)

Columns and labels:
[1] = test system: T cells transduced with these inducible death molecules; settings: inducible Fas or FADD DED; cited from earlier work
[2] = test system: differentiated progeny of human MSCs expressing iCasp9; test: Apoptosis of differentiated iCasp9-positive MSCs (TUNEL, cell density); assay type: cell-based; settings: adipocytic differentiation, 50 nM CID, after 24 hours (from 584 cells/mm2)
Method: Differentiated MSCs. Transduced MSCs were differentiated as presented above. At the end of the differentiation period, CID was added to the differentiation media at 50 nM. Cells were stained appropriately for the tissue being studied, as presented above, and a contrast stain (methylene azur or methylene blue) was used to evaluate the nuclear and cytoplasmic morphology. In parallel, tissues were processed for terminal deoxynucleotidyl-transferase dUTP nick end labeling (TUNEL) assay as per manufacturer instructions (In Situ Cell Death Detection Kit, Roche Diagnostics, Mannheim, Germany). For each time point, four random fields were photographed at a final magnification of 40× and the images were analyzed with ImageJ software version 1.43o (NIH, Bethesda, Md.). Cell density was calculated as the number of nuclei (DAPI positivity) per unit of surface area (in mm^2). The percentage of apoptotic cells was determined as the ratio of the number of nuclei with positive TUNEL signal (FITC positivity) to the total number of nuclei. Controls were maintained in culture without CID.
After culture in adipocytic differentiation media, iCasp9-positive cells gave rise to adipocytes. After exposure to 50 nM CID, progressive apoptosis was observed as evidenced by an increasing proportion of TUNEL-positive cells. […]

[3] = test system: iCasp9M.IRES.IL-12-transduced cells; test: IL-12 ELISA of supernatant of iCasp9M.I.IL-12-transduced EBV-CTLs; assay type: cell-based, human; settings: 10 nM CID; detection limit 8 pg/mL
Method: The concentration of interferon-γ (IFN-γ), IL-2, IL-4, IL-5, IL-10, and tumor necrosis factor-α (TNFα) in CTL culture supernatants was measured using the Human Th1/Th2 cytokine cytometric Bead Array (BD Pharmingen) and the concentration of IL-12 in the culture supernatants was measured by enzyme-linked immunosorbent assay (ELISA; R&D Systems, Minneapolis, Minn.) according to the instructions of the manufacturer.
To determine whether iCasp9M could effectively destroy cells genetically modified to express an active transgene product, the ability of iCasp9M to eliminate EBV-CTLs stably expressing IL-12 was measured. While IL-12 was undetectable in the supernatant of nontransduced and iCasp9M.IRES.GFP-transduced CTLs, the supernatant of iCasp9M.IRES.IL-12-transduced cells contained 324 pg/mL to 762 pg/mL IL-12. After administration of 10 nM CID, however, the IL-12 in the supernatant fell to undetectable levels (<8 pg/mL). Thus, even without prior sorting for high transgene expressing cells, activation of iCasp9M is sufficient to completely eliminate all T cells producing biologically relevant levels of IL-12 (FIG. 6). The function of iCasp9M when coexpressed with IL-12 is graphically represented by bar graphs in FIG. 6. […] Three days after a second antigenic stimulation, the levels of IL-12 in the culture supernatant were measured by IL-12 ELISA (detection limit of this assay is 8 pg/mL). […]

[4] = test system: non-transduced cells; test: Viability of non-transduced cells with AP20187; assay type: cell-based, human
Method: Suicide gene functionality was assessed by adding a small molecule synthetic homodimerizer, AP20187 (Ariad Pharmaceuticals; Cambridge, Mass.), at 10 nM final concentration the day following CD19 immunomagnetic selection. Cells were stained with annexin V and 7-amino-actinomycin (7-AAD)(BD Pharmingen) at 24 hours and analyzed by flow cytometry. Cells negative for both annexin V and 7-AAD were considered viable, cells that were annexin V positive were apoptotic, and cells that were both annexin V and 7-AAD positive were necrotic. The percentage killing induced by dimerization was corrected for baseline viability as follows: Percentage killing=100%−(% Viability in AP20187-treated cells÷% Viability in non-treated cells).
The day following immunomagnetic selection, 10 nM of the chemical inducer of dimerization, AP20187, was added to induce apoptosis, which appeared within 24 hours. […] Killing efficiency after correction for baseline viability was about 92.9%±3.8%. Large-scale CD19 selection produced cells that were killed with similar efficiency as small-scale selection: mean viability with and without AP20187, and percentage killing, in large and small scale were about 3.9%, about 84.0%, about 95.4% (n=3) and about 6.6%, about 79.3%, about 91.4% (n=5) respectively. […]

[5] = test system: EBV-specific and CMV-specific T cells; test: Pentamer analysis of virus-specific T cells after AP20187 treatment of allostimulated cells; assay type: cell-based, human; settings: 10 nM after 4 days reactivation with allogeneic PBMC
[6] = test system: F-Casp9M.I.GFPhigh-transduced T cells; test: Annexin-V/7-AAD staining of GFPhigh-selected iCasp9M-transduced T cells after CID; assay type: cell-based, human
[7] = representative example of 3 separate experiments

For `CC[C@H](C(=O)N1CCCC[C@H]1C(=O)O[C@H](CCc1ccc(OC)c(OC)c1)c1cccc(OCC(=O)NCC(CNC(=O)COc2cccc([C@@H](CCc3ccc(OC)c(OC)c3)OC(=O)[C@@H]3CCCCN3C(=O)[C@@H](CC)c3cc(OC)c(OC)c(OC)c3)c2)CN(C)C)c1)c1cc(OC)c(OC)c(OC)c1` [AP20187], the “transduced T cells undergoing apoptosis after administration of CID” value [1] is listed as “Up to 90%”, the “cell density after CID” value [2] is listed as under 14 cells/mm2 and the “IL-12 in the supernatant after CID” value [3] is listed as under 8 pg/mL. The “toxicity to non-transduced cells” value [4] was “non-toxic”, the “viability of non-transduced cells with AP20187” value ([4]; n=6) was “about 86%±9” and the “effect on virus-specific T cells” value [5] was “spares (and thereby enriches) viral reactive subpopulations”. The “time to apoptotic characteristics (cell shrinkage and fragmentation) after CID administration” value ([6]; GFPhigh-selected cells) was at most 14 h, the “apoptotic phenotype (annexin V+, 7-AAD−)” value [6, 7] was 64% and the “necrotic phenotype (annexin V+, 7-AAD+)” value [6, 7] was 32%.
